From patent US20070061084A1, “Method, system, and knowledge repository for identifying a secondary metabolite from a microorganism” (Ecopia BioSciences, Inc., priority 2002, published 2007)
Values after ≈ are worked out from the molar mass of the structure shown.

Columns and labels:
[1] = tested on: Saccharomyces cerevisiae FHCRC 50514; assay: Disk diffusion assay, antifungal bioactivity; assay type: cell-based; conditions: 37° C., 24 hours
Method: Antifungal bioactivity of Compound 1 (0506), in comparison to Amphotericin B, against Saccharomyces cerevisiae FHCRC 50514 was determined using a disk diffusion assay. Such an assay is commonly used to reveal activity of antifungal drugs against fungi (Wong G K, Griffith S, Kojima I and Demain A L, J. Antibiotics, 51(5): 487-491, 1998).
Inoculum (100 μL) was added to 100 mL of RPMI agar (kept at 55° C.) to give a final suspension of about 1×10^5 CFU/mL, and poured into 150 mm Petri dishes. Plates were used immediately upon setting of the agar.
Compound 1 (0506) was diluted in DMSO to a concentration of 3.2 mg/mL. A 20 μL sample (64 μg) was deposited on the agar surface of prepared plates. Amphotericin solution in DMSO (5 mg/mL; 10 μL; 50 μg) was also deposited, in a separate location, on the agar surface. A negative control (10 μL of stock solution) was also deposited in a separate location on the surface of the agar. The plates were incubated at 37° C. for 24 hours.

[2] = target: T1, Angiotensin Converting Enzyme (Oryctolagus cuniculus, UniProt P12822); assay: ACE enzyme inhibition assay (spectrometric quantitation of FAPGG); assay type: biochemical; conditions: 10 μM in 1% DMSO; rabbit lung enzyme
T1 construct: ACE: Source: rabbit lung; from tissue; host or cells: rabbit lung
T1 sequence (P12822 34-1310): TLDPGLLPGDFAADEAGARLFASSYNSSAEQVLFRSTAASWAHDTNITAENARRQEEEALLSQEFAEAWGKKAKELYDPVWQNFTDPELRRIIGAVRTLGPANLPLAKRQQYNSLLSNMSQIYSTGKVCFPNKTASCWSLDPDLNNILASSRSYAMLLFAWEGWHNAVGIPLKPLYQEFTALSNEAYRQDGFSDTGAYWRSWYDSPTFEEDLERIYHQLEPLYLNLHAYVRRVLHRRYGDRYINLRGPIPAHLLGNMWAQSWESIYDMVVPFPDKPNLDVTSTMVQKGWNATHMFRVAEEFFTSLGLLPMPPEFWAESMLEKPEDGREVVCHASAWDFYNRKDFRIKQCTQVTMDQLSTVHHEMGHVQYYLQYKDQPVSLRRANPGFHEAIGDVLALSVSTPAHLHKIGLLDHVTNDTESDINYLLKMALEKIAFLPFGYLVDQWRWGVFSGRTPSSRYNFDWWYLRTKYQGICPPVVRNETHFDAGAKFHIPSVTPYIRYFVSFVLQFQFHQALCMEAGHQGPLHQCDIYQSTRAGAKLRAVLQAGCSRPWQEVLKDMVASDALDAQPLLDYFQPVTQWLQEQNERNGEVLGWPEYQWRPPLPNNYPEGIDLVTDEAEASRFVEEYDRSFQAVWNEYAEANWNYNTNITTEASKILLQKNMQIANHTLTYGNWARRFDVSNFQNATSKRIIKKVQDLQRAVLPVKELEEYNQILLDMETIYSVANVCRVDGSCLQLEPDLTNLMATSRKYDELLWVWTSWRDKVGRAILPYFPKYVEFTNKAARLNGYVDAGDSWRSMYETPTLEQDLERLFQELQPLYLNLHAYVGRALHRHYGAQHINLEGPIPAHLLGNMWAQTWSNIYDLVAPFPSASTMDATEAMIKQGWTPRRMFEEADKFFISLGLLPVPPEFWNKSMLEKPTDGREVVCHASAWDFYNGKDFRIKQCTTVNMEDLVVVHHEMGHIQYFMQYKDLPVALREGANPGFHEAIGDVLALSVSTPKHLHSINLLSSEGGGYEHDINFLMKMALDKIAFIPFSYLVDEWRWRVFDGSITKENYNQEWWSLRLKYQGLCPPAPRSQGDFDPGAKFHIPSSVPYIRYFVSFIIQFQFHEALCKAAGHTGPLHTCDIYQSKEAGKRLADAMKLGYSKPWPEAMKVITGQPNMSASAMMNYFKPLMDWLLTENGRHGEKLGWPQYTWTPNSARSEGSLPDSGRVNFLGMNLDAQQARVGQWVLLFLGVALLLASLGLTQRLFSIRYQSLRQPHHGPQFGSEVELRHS

[3] = target: T2, Protein Serine/Threonine Kinase MEK1 (Oryctolagus cuniculus, UniProt P29678); assay: MEK1 enzyme inhibition assay (Elisa quantitation of MBP-P); assay type: biochemical; conditions: 10 μM in 1% DMSO; rabbit recombinant E. coli
T2 construct: made in house; host or cells: E. coli

Adenosine A3 Receptor [4] = target: T3, Adenosine A3 Receptor (Homo sapiens, UniProt P0DMS8); assay: Adenosine A3 radioligand binding assay; parameters: expressed in transfected cells; host or cells: CHO-K1 cells; conditions: 10 μM in 1% DMSO; human recombinant CHO-K1 cells; negative value = stimulation of binding
T3 sequence (P0DMS8 1-318): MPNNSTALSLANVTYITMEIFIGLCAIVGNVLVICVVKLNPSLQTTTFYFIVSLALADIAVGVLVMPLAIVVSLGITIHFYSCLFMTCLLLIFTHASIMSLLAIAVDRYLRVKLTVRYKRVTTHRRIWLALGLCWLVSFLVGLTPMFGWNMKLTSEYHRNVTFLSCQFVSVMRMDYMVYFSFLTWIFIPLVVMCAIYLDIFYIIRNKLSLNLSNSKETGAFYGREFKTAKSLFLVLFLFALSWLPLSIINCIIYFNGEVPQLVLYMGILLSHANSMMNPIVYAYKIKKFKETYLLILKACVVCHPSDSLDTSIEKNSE

[5] = tested on: Saccharomyces cerevisiae Δpdr1/pdr3/erg6 (FHCRC 50514); assay: Broth dilution antifungal susceptibility (NCCLS M27A), MIC; conditions: 48 h, read-out: minimum inhibitory concentration (MIC)
Adenosine A3 Receptor [6] = target: T3, Adenosine A3 Receptor; conditions: radioligand, historical value; cited from earlier work
Candida indicators = assay: Bioactivity screen of HPLC/MS fractions of organism 100 extracts; assay type: cell-based; conditions: compound of mass 1113 Da from organism 100 extracts
Method: An extract containing the putative polyene was obtained from organism 100 using a metabolomic approach to identify conditions under which the product of locus 100C was expressed. This approach obtains analytical measurement of all low molecular weight metabolites in a given organism at a specific time when grown under specific culture conditions. Organism 100 was grown in 48 different media, namely AA, AB, AC, BA, CA, CB, CI, DA, DY, DZ, EA, ES, ET, FA, GA, IB, JA, KA, KE, LA, MA, MC, MU, NA, NE, NF, NG, OA, PA, PB, QB, RA, RB, RC, RM, SF, SP, TA, VA, VB, WA, WS, XA, YA, ZA. Metabolites were extracted from whole cell cultures by adding of an equal volume of methanol. After removal of solid debris, the extract was concentrated and injected into an HPLC/MS system in which the metabolites were analyzed to obtain UV and mass data and purified fractions are collected in 96-well plates and assayed for multiple activities including antibiotic activity against gram-positive and gram-negative bacteria, and fungi.
Finally, the extracts generated by growth of organism 100 under each of the 48 media were analyzed for metabolites having physical, chemical and biological characteristics of polyenes. […]

T2 sequence (P29678 whole entry): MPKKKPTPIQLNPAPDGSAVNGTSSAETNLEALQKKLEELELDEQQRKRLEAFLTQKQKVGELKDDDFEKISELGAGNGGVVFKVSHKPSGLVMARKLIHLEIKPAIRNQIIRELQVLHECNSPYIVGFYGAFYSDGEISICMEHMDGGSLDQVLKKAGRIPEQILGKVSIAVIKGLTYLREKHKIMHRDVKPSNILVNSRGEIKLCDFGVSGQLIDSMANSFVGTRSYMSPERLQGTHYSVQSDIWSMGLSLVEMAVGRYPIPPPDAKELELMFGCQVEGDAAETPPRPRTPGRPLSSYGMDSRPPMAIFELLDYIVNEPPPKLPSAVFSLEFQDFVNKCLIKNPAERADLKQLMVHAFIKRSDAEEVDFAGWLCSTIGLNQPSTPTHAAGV

For C[C@@H]1[C@H](O)[C@@H](C)/C=C/C=C/C=C/C=C/C=C/C=C/C=C/[C@H](O[C@@H]2O[C@H](C)[C@@H](O)[C@H](N)[C@@H]2O)C[C@@H]2O[C@](O)(C[C@@H](O)C[C@@H](O)[C@H](O)CC[C@@H](O)C[C@@H](O)CC(=O)O[C@H]1C)C[C@H](O)[C@H]2C(=O)O [Amphotericin B, reference compound], the “zone of inhibition (diameter)” value ([1]; at 50 μg deposited on agar) was 23.9 mm.

For CNC(CCCN(O)C(=O)C(CO)NC(=O)C(N)CCCN(C=O)C(=N)N)C(=O)NC(CO)C(=O)NC(CO)C(=O)NC(CCC(N)=O)C(=O)O (stereo not drawn) [Compound 1 (0506)], the inhibition at 10 µM [2] was 50%, the “zone of inhibition (diameter)” value ([1]; at 64 μg deposited on agar) was 36.4 mm and the inhibition at 10 µM [3] was 63%. For the same compound, the inhibition at 10 µM (Adenosine A3 Receptor [4]) was -101%.

Work on C/C=C(\C)C(O)C(C)/C=C/C=C(\C)CCC(O)CC1=C(C)C(=O)C(C)(O)O1 (stereo not drawn) [Compound 2] yielded an MIC [5] of 64 µg/mL (≈ 169 µM).

OC(Cn1cncn1)(Cn1cncn1)c1ccc(F)cc1F [Fluconazole, reference compound] gave an MIC [5] of 0.25 to 0.5 µg/mL (≈ 0.816 to 1.63 µM).

For COc1cc2nc(N3CCN(C(=O)c4ccco4)CC3)nc(N)c2cc1OC [[H3] Prazosin, Prazosin], the Kd (Adenosine A3 Receptor [6]) is given as 0.29 nM.

With CC1/C=C/C=C/C=C/C=C/C=C/C=C/C=C/C(OC2O[C@H](C)C(O)[C@H](N)C2O)CC2OC(O)(CC(O)CC(O)CC(O)CC(O)C[C@H](O)CC(O)CC(=O)OC1C(C)CCC(O)CC(=O)c1ccc(N)cc1)CC(O)C2C(=O)O (stereo partly drawn) [ayfactin] the antifungal activity (Candida indicators) was “antifungal activity”.
